Laboratory results taken from BigSolDB 2.1.

C1N2CN3CN1CN(C2)C3
Settings | solubility (mole fraction)
in acetic acid, 304.52 K | 0.245
in acetic acid, 310.83 K | 0.245
in acetic acid, 317.35 K | 0.246
in acetic acid, 321.91 K | 0.249
in acetic acid, 327.65 K | 0.25
in acetic acid, 332.65 K | 0.251
in acetic acid, 337.15 K | 0.256
in ethanol, 288.19 K | 0.0085
in ethanol, 293.49 K | 0.0096
in ethanol, 298.43 K | 0.0107
in ethanol, 303.4 K | 0.012
in ethanol, 312.91 K | 0.0148
in methanol, 299.91 K | 0.0234
in methanol, 304.45 K | 0.0251
in methanol, 307.85 K | 0.0264
in methanol, 311.9 K | 0.028
in methanol, 315.95 K | 0.0293
in methanol, 319.63 K | 0.0304
in methanol, 323.65 K | 0.032
in methanol, 326.25 K | 0.0335
in methanol, 330.85 K | 0.0353
in water, 303.21 K | 0.098
in water, 307.4 K | 0.0959
in water, 312.18 K | 0.0948
in water, 317.05 K | 0.0931
in water, 321.86 K | 0.0914
in water, 326.15 K | 0.0894
in water, 330.45 K | 0.0891
in water, 335.42 K | 0.0895
in water, 340.35 K | 0.0914
